In patent US20040002479A1, “Peptide analogues and uses thereof” (priority 2002, published 2004):

Test: Hydroxyapatite assay (hydroxyapatite adsorption chromatography, bone-targeting potential)
Assay type: physicochemical
Details: corrected K=(retention time-void time)/void; TSK-Gel HA 1000 HPLC column; linear gradient 10 mM to 500 mM sodium phosphate, 0.15 N NaCl, pH 6.8
Method: Hydroxyapatite is the principal mineral component of bone. Hydroxyapatite adsorption chromatography is used as an assay to evaluate the bone-targeting potential of both individual bone-targeting moieties (“monomers”) and of pharmaceuticals incorporating bone-targeting groups.
Method: The rentention time of a test compound is measured using a linear gradient from 10 mM sodium phosphate, 0.15 N NaCl, pH=6.8 to 500 mM sodium phosphate, 0.15 N NaCl, […] on a TSK-Gel HA 1000 high pressure liquid chromatography column (7.5 mm×75 mm). The rentention time of the compound is expressed in terms of K=(retention time-void time)/void. This K value is corrected using two reference compounds to correct from inter-column and inter-system variation to obtain a K′ value.
Reference Compounds: K′ values were determined for known bone targeted compounds, the bisphosphonate, alendronate and tetracycline.

NCCCC(O)(P(=O)(O)O)P(=O)(O)O [Alendronate, alendronate]
K′ value: 3.7
